Source: US9215875B2 (priority 2008, dated 2015)
Where two headings read alike, the source gives them in different places.

Assay: log P determination by HPLC on reversed-phase columns (C 18), acidic range pH 2.7
Format: physicochemical
Settings: for logP: HPLC; for chromatographic logP: reversed-phase HPLC column (C 18)
[1] = pH 2.7, only value, or main isomer
[2] = pH 2.7, second-listed (minor) isomer of the isomer mixture
[3] = pH 2.7, HPLC, pH 2.7, only value, or main isomer, read-out: logP
[4] = pH 2.7, HPLC, pH 2.7, second-listed (minor) isomer of the isomer mixture, read-out: logP
[5] = pH 2.7, pH 2.7, preparation example, minor isomer, read-out: log P (pH2.7)
[6] = pH 2.7, pH 2.7, preparation example, only value or main isomer, read-out: log P (pH2.7)

Row | SMILES | logP [1] | logP [2] | other results
1 | Cc1cc(C(F)(F)F)nn1CC(=O)N1CCC(c2nc(C=NOCc3ccccc3)cs2)CC1 (mixture of isomers) [I-2] | 3.63 | 3.80 | 
2 | Cc1cc(C(F)(F)F)nn1CC(=O)N1CCC(c2nc(C=NOC(C)c3ccccc3)cs2)CC1 (mixture of isomers) [I-3] | 3.92 | 4.07 | 
3 | CC(=NOc1ccccc1)c1csc(C2CCN(C(=O)Cn3nc(C(F)(F)F)cc3C)CC2)n1 (mixture of isomers) [I-4] | 4.23 | 4.46 | 
4 | Cc1ccccc1CON=Cc1csc(C2CCN(C(=O)Cn3nc(C(F)(F)F)cc3C)CC2)n1 (mixture of isomers) [I-6] | 3.96 | 4.12 | 
5 | Cc1cc(C(F)(F)F)nn1CC(=O)N1CCC(c2nc(C=NOCc3ccc(Cl)cc3)cs2)CC1 (mixture of isomers) [I-7] | 4.04 | 4.23 | 
6 | Cc1cc(C(F)(F)F)nn1CC(=O)N1CCC(c2nc(C=NOC(C)c3ccc(Cl)cc3)cs2)CC1 (mixture of isomers) [I-8] | 4.34 | 4.50 | 
7 | Cc1cc(C(F)(F)F)nn1CC(=O)N1CCC(c2nc(C=NOCc3ccccc3F)cs2)CC1 (mixture of isomers) [I-9] | 3.68 | 3.84 | 
8 | CC(=NOCc1ccccc1)c1csc(C2CCN(C(=O)Cn3nc(C(F)(F)F)cc3C)CC2)n1 (mixture of isomers) [I-10] | 4.07 | 4.28 | 
9 | Cc1cc(C(F)(F)F)nn1CC(=O)N1CCC(c2nc(C=NOC3CCCCC3)cs2)CC1 (mixture of isomers) [I-33] | 4.26 | 4.48 | 
10 | O=C(Cn1nc(C(F)F)cc1C(F)F)N1CCC(c2nc(C=NOC3CCCCC3)cs2)CC1 (mixture of isomers) [I-34] | 4.12 | 4.33 | 
11 | O=C(Cc1cc(Cl)ccc1Cl)N1CCC(c2nc(C=NOC3CCCCC3)cs2)CC1 (mixture of isomers) [I-35] | 5.10 | 5.45 | 
12 | Cc1cc(C(F)(F)F)nn1CC(=O)N1CCC(c2nc(C=NOCc3c(F)cccc3F)cs2)CC1 (mixture of isomers) [I-36] | 3.70 | 3.86 | 
13 | O=C(Cn1nc(C(F)F)cc1C(F)F)N1CCC(c2nc(C=NOCc3c(F)cccc3F)cs2)CC1 (mixture of isomers) [I-37] | 3.58 | 3.74 | 
14 | O=C(Cc1cc(Cl)ccc1Cl)N1CCC(c2nc(C=NOCc3c(F)cccc3F)cs2)CC1 (mixture of isomers) [I-38] | 4.36 | 4.60 | 
15 | CC(=NOCc1c(F)cccc1F)c1csc(C2CCN(C(=O)Cn3nc(C(F)(F)F)cc3C)CC2)n1 (mixture of isomers) [I-41] | 4.11 | 4.32 | 
16 | CC(=NOCc1c(F)cccc1F)c1csc(C2CCN(C(=O)Cn3nc(C(F)F)cc3C(F)F)CC2)n1 (mixture of isomers) [I-42] | 4.00 | 4.19 | 
17 | CC(=NOCc1c(F)cccc1F)c1csc(C2CCN(C(=O)Cc3cc(Cl)ccc3Cl)CC2)n1 (mixture of isomers) [I-43] | 4.91 | 5.16 | 
18 | CC(=NOC1CCCCC1)c1csc(C2CCN(C(=O)Cn3nc(C(F)(F)F)cc3C)CC2)n1 (mixture of isomers) [I-44] | 4.02 | 4.12 | 
19 | CC(=NOC1CCCCC1)c1csc(C2CCN(C(=O)Cn3nc(C(F)F)cc3C(F)F)CC2)n1 (mixture of isomers) [I-45] | 4.69 | 4.88 | 
20 | CC(=NOC1CCCCC1)c1csc(C2CCN(C(=O)Cc3cc(Cl)ccc3Cl)CC2)n1 (mixture of isomers) [I-46] | 5.87 | 6.17 | 
21 | Cc1cc(C(F)(F)F)nn1CC(=O)N1CCC(c2nc(C=NOc3ccccc3)cs2)CC1 [I-1, 2-(1-{[5-Methyl-3-(trifluoromethyl)-1H-pyrazol-1-yl]acetyl}piperidin-4-yl)-1,3-thiazole-4-carbaldehyde O-phenyl oxime] |  |  | chromatographic logP [3]: 3.74; chromatographic logP [4]: 3.94; chromatographic logP [5]: 3.94; chromatographic logP [6]: 3.74
22 | CC(=NOC(C)c1ccccc1)c1csc(C2CCN(C(=O)Cn3nc(C(F)(F)F)cc3C)CC2)n1 (centres unmarked) [I-5, 2-[5-Methyl-3-(trifluoromethyl)-1H-pyrazol-1-yl]-1-(4-{4-[N-(1-phenylethoxy)ethanimidoyl]-1,3-thiazol-2-yl}piperidin-1-yl)ethanone] |  |  | chromatographic logP [3]: 4.38; chromatographic logP [4]: 4.54; chromatographic logP [5]: 4.54; chromatographic logP [6]: 4.38
23 | Cc1cc(C(F)(F)F)nn1CC(=O)N1CCC(c2nc(C=NN(C)Cc3ccccn3)cs2)CC1 [I-11] | 1.82 |  | 

Row | SMILES | logP [1] | logP [2] | other results
24 | Cc1cc(C(F)(F)F)nn1CC(=O)N1CCC(c2nc(C=NN(Cc3ccccc3)c3ccccc3)cs2)CC1 [I-12] | 4.70 |  | 
25 | Cc1cc(C(F)(F)F)nn1CC(=O)N1CCC(c2nc(C=NN(c3ccccc3)c3ccccc3)cs2)CC1 [I-13] | 4.77 |  | 
26 | Cc1cc(C(F)(F)F)nn1CC(=O)N1CCC(c2nc(C=NN(C)c3ccc(C(F)(F)F)cn3)cs2)CC1 [I-14, 2-(1-{[5-Methyl-3-(trifluoromethyl)-1H-pyrazol-1-yl]acetyl}piperidin-4-yl)-1,3-thiazole-4-carbaldehyde methyl[5-(trifluoromethyl)pyridin-2-yl]hydrazone] |  |  | chromatographic logP [3]: 4.23; chromatographic logP [6]: 4.23
27 | Cc1cc(C(F)(F)F)nn1CC(=O)N1CCC(c2nc(C=NN(C)c3ccccc3)cs2)CC1 [I-15] | 3.83 |  | 
28 | Cc1cc(C(F)(F)F)nn1CC(=O)N1CCC(c2nc(C=NN3CCCCC3)cs2)CC1 [I-16] | 3.00 |  | 
29 | CC(=NN1CCCCC1)c1csc(C2CCN(C(=O)Cn3nc(C(F)(F)F)cc3C)CC2)n1 [I-17, 2-[5-Methyl-3-(trifluoromethyl)-1H-pyrazol-1-yl]-1-(4-{4-[N-(piperidin-1-yl)ethanimidoyl]-1,3-thiazol-2-yl}piperidin-1-yl)ethanone] |  |  | chromatographic logP [3]: 3.69; chromatographic logP [6]: 3.69
30 | Cc1cc(C(F)(F)F)nn1CC(=O)N1CCC(c2nc(C=NOCc3ccccc3Cl)cs2)CC1 [I-18] | 4.04 |  | 
31 | CCCCCCON=C(C)c1csc(C2CCN(C(=O)Cn3nc(C(F)(F)F)cc3C)CC2)n1 [I-19] | 5.13 |  | 
32 | CCCCCON=C(C)c1csc(C2CCN(C(=O)Cn3nc(C(F)(F)F)cc3C)CC2)n1 [I-20] | 4.71 |  | 
33 | CC(=NOCCCc1ccccc1)c1csc(C2CCN(C(=O)Cn3nc(C(F)(F)F)cc3C)CC2)n1 [I-21] | 4.66 |  | 
34 | CC(=NOCCCCc1ccccc1)c1csc(C2CCN(C(=O)Cn3nc(C(F)(F)F)cc3C)CC2)n1 [I-22] | 4.97 |  | 
35 | O=C(Cn1nc(C(F)(F)F)cc1C(F)(F)F)N1CCC(c2nc(C=NOCc3ccc(Cl)cc3)cs2)CC1 [I-24] | 4.56 |  | 
36 | CCc1cc(CC)n(CC(=O)N2CCC(c3nc(C=NOCc4ccc(Cl)cc4)cs3)CC2)n1 [I-25] | 3.70 |  | 
37 | CCc1cc(C(F)(F)F)nn1CC(=O)N1CCC(c2nc(C=NOCc3ccc(Cl)cc3)cs2)CC1 [I-26] | 4.30 |  | 
38 | O=C(Cn1nc(C(F)F)cc1C(F)F)N1CCC(c2nc(C=NOCc3ccc(Cl)cc3)cs2)CC1 [I-27] | 3.90 |  | 
39 | CC(C)(C)c1cc(C(F)(F)F)n(CC(=O)N2CCC(c3nc(C=NOCc4ccc(Cl)cc4)cs3)CC2)n1 [I-28] | 4.99 |  | 
40 | CC(C)(C)c1cc(C(F)(F)F)nn1CC(=O)N1CCC(c2nc(C=NOCc3ccc(Cl)cc3)cs2)CC1 [I-29] | 4.75 |  | 
41 | CC(C)(C)c1cc(C(F)(F)C(F)(F)F)n(CC(=O)N2CCC(c3nc(C=NOCc4ccc(Cl)cc4)cs3)CC2)n1 [I-30] | 5.31 |  | 
42 | CC(C)(C)c1cc(C(F)(F)C(F)(F)F)nn1CC(=O)N1CCC(c2nc(C=NOCc3ccc(Cl)cc3)cs2)CC1 [I-31] | 5.31 |  | 
43 | CC(C)c1cc(C(F)(F)F)n(CC(=O)N2CCC(c3nc(C=NOCc4ccc(Cl)cc4)cs3)CC2)n1 [I-32] | 4.56 |  | 
44 | Cc1cc(C(F)(F)F)nn1CC(=O)N1CCC(c2nc(C=NOc3ccccc3Br)cs2)CC1 [I-39] | 4.14 |  | 
45 | O=C(Cc1cc(Cl)ccc1Cl)N1CCC(c2nc(C=NOc3ccccc3Br)cs2)CC1 [I-40] | 4.90 |  | 
46 | CC(=O)c1csc(C2CCN(C(=O)Cn3nc(C(F)(F)F)cc3C)CC2)n1 [IV-1, 1-[4-(4-Acetyl-1,3-thiazol-2-yl)piperidin-1-yl]-2-[5-methyl-3-(trifluoromethyl)-1H-pyrazol-1-yl]ethanone] |  |  | chromatographic logP [6]: 2.25
